In patent publication US9845322B2 (Hoffmann-La Roche Inc., priority 2016, dated 2017):
Read-outs that look alike come from different tables or passages of the source.

Tested on: HBsAg secretion in HepG2.2.15 cells
Test: HBsAg assay (chemiluminescence immunoassay of secreted HBsAg in culture supernatant)
Format: cell-based, HBV
How it was run: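 IC50 taken from dose-response curves as the concentration halving secreted HBsAg relative to DMSO control. Measured by chemiluminescence immunoassay of culture supernatant from constitutively HBV-expressing HepG2.2.15 cells, seeded at 1.5×10^4/well in duplicate and exposed to three-fold serial compound dilutions at 1% final DMSO.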

[1] = Hepatitis B virus, HepG2.2.15, HepG2.2.15 cells, concentration at which HBsAg secretion was reduced by 50% compared to the no drug control, read-out: IC50 (HBsAg assay)
[2] = HepG2.2.15 cells, concentration at which HBsAg secretion was reduced by 50% compared to the no drug control, read-out: IC50 (HBsAg assay)

CC1c2cnc(-c3ccccn3)nc2CCN1c1cc(F)cc(N(C)C)n1 (stereo not drawn) [Example 217, 4-fluoro-N,N-dimethyl-6-[5-methyl-2-(2-pyridyl)-7,8-dihydro-5H-pyrido[4,3-d]pyrimidin-6-yl]pyridin-2-amine]
IC50 [1]: 28 nM

CC1c2cnc(-c3ncccn3)nc2CCN1c1cc(F)cc(OCC(F)F)c1 (stereo not drawn) [Example 143, 6-[3-(2,2-difluoroethoxy)-5-fluoro-phenyl]-5-methyl-2-pyrimidin-2-yl-7,8-dihydro-5H-pyrido[4,3-d]pyrimidine]
IC50 [1]: 22 nM

CC1c2cnc(-c3ncccn3)nc2CCN1c1cc(OCCCOCC(=O)O)cc(F)n1 (stereo not drawn) [Example 162, 2-[3-[[2-fluoro-6-(5-methyl-2-pyrimidin-2-yl-7,8-dihydro-5H-pyrido[4,3-d]pyrimidin-6-yl)-4-pyridyl]oxy]propoxy]acetic acid]
IC50 [1]: 1780 nM

CC1c2cnc(-c3ncccn3)nc2CCN1c1cc(F)c(F)c(OCCCCCN)c1 (stereo not drawn) [Example 57, 5-[2,3-difluoro-5-(5-methyl-2-pyrimidin-2-yl-7,8-dihydro-5H-pyrido[4,3-d]pyrimidin-6-yl)phenoxy]pentan-1-amine]
IC50 [1]: 110 nM

COCCOc1cc(N2CCc3nc(-c4ccccn4)ncc3C2C)cc(F)c1F (single isomer, unassigned; (-)) [Example 21, (−)-6-[3,4-difluoro-5-(2-methoxyethoxy)phenyl]-5-methyl-2-(2-pyridyl)-7,8-dihydro-5H-pyrido[4,3-d]pyrimidine]
IC50 [2]: 50 nM

COc1cc(N2CCc3nc(-c4ncccn4)ncc3C2C)cc(Cl)c1F (stereo not drawn) [Example 41, 6-(3-chloro-4-fluoro-5-methoxy-phenyl)-5-methyl-2-pyrimidin-2-yl-7,8-dihydro-5H-pyrido[4,3-d]pyrimidine]
IC50 [2]: 38 nM

CC1c2cnc(-c3ccccn3)nc2CCN1c1cc(N2CCOCC2)cc(F)n1 (stereo not drawn) [Example 220, 4-[2-fluoro-6-[5-methyl-2-(2-pyridyl)-7,8-dihydro-5H-pyrido[4,3-d]pyrimidin-6-yl]-4-pyridyl]morpholine]
IC50 [1]: 21 nM

COc1cc(F)c(Cl)c(N2CCc3nc(-c4ncccn4)ncc3C2C)c1Cl (single isomer, unassigned; (+)) [Example 123, (+)-6-(2,6-dichloro-3-fluoro-5-methoxy-phenyl)-5-methyl-2-pyrimidin-2-yl-7,8-dihydro-5H-pyrido[4,3-d]pyrimidine]
IC50 [1]: 1140 nM

COc1cc(F)cc(N2CCc3nc(-c4ncccn4)ncc3C2C)c1Cl (single isomer, unassigned; (-)) [Example 131, (−)-6-(2-chloro-5-fluoro-3-methoxy-phenyl)-5-methyl-2-pyrimidin-2-yl-7,8-dihydro-5H-pyrido[4,3-d]pyrimidine]
IC50 [1]: 2 nM

COc1cc(N2CCc3nc(-c4ncccn4)ncc3C2C)nc(F)c1Cl (single isomer, unassigned; (-)) [Example 146, (−)-6-(5-chloro-6-fluoro-4-methoxy-2-pyridyl)-5-methyl-2-pyrimidin-2-yl-7,8-dihydro-5H-pyrido[4,3-d]pyrimidine]
IC50 [1]: 2 nM

CC1c2cnc(-c3ccccn3)nc2CCN1c1ccc(S(C)(=O)=O)cc1 (stereo not drawn) [Example 23, 5-methyl-6-(4-methylsulfonylphenyl)-2-(2-pyridyl)-7,8-dihydro-5H-pyrido[4,3-d]pyrimidine]
IC50 [1]: 1490 nM

COc1cc(F)nc(N2CCc3nc(-c4ncccn4)ncc3C2C)c1Cl (single isomer, unassigned; (-)) [Example 147, (−)-6-(3-chloro-6-fluoro-4-methoxy-2-pyridyl)-5-methyl-2-pyrimidin-2-yl-7,8-dihydro-5H-pyrido[4,3-d]pyrimidine]
IC50 [1]: 21 nM

CC1c2cnc(-c3ccccn3)nc2CCN1c1ccc([N+](=O)[O-])cc1 (single isomer, unassigned; (+)) [Example 2, (+)-5-methyl-6-(4-nitrophenyl)-2-(2-pyridyl)-7,8-dihydro-5H-pyrido[4,3-d]pyrimidine]
IC50 [2]: 2060 nM

CC1c2cnc(-c3ncccn3)nc2CCN1c1cc(OCC2CCCO2)cc(F)n1 (stereo not drawn) [Example 166, 6-[6-fluoro-4-(tetrahydrofuran-2-ylmethoxy)-2-pyridyl]-5-methyl-2-pyrimidin-2-yl-7,8-dihydro-5H-pyrido[4,3-d]pyrimidine]
IC50 [1]: 19 nM

CCCC1c2cnc(-c3ccccn3)nc2CCN1c1cc(F)c(F)c(OC)c1 (single isomer, unassigned; (+)) [Example 13, (+)-6-(3,4-difluoro-5-methoxy-phenyl)-5-propyl-2-(2-pyridyl)-7,8-dihydro-5H-pyrido[4,3-d]pyrimidine]
IC50 [2]: 14400 nM

CC1c2cnc(-c3ncccn3)nc2CCN1c1cc(F)c(F)c(OCC(F)(F)F)c1 (stereo not drawn) [Example 69, 6-[3,4-difluoro-5-(2,2,2-trifluoroethoxy)phenyl]-5-methyl-2-pyrimidin-2-yl-7,8-dihydro-5H-pyrido[4,3-d]pyrimidine]
IC50 [1]: 33 nM

COC(=O)COc1cc(N2CCc3nc(-c4ccccn4)ncc3C2C)cc(F)c1F (stereo not drawn) [Example 27, methyl 2-[2,3-difluoro-5-[5-methyl-2-(2-pyridyl)-7,8-dihydro-5H-pyrido[4,3-d]pyrimidin-6-yl]phenoxy]acetate]
IC50 [1]: 3430 nM

CC1c2cnc(-c3ccccn3)nc2CCN1c1cc(F)cc(OCC(F)F)n1 (stereo not drawn) [Example 193, 6-[6-(2,2-difluoroethoxy)-4-fluoro-2-pyridyl]-5-methyl-2-(2-pyridyl)-7,8-dihydro-5H-pyrido[4,3-d]pyrimidine]
IC50 [1]: 83 nM

COc1cc(F)cc(N2CCc3nc(-c4ncccn4)ncc3C2C)c1 (single isomer, unassigned; (+)) [Example 74, (+)-6-(3-fluoro-5-methoxy-phenyl)-5-methyl-2-pyrimidin-2-yl-7,8-dihydro-5H-pyrido[4,3-d]pyrimidine]
IC50 [2]: 2250 nM

CC1c2cnc(-c3ccccn3)nc2CCN1c1cc(F)c(F)c(OCC(=O)O)c1 (stereo not drawn) [Example 28, 2-[2,3-difluoro-5-[5-methyl-2-(2-pyridyl)-7,8-dihydro-5H-pyrido[4,3-d]pyrimidin-6-yl]phenoxy]acetic acid]
IC50 [1]: 3080 nM

CC1c2cnc(-c3ncccn3)nc2CCN1c1cc(OCCCCCCCC(=O)O)cc(F)n1 (stereo not drawn) [Example 168, 8-[[2-fluoro-6-(5-methyl-2-pyrimidin-2-yl-7,8-dihydro-5H-pyrido[4,3-d]pyrimidin-6-yl)-4-pyridyl]oxy]octanoic acid]
IC50 [1]: 21 nM

CC1c2cnc(-c3ncccn3)nc2CCN1c1cc(F)c(F)c(OCCCS(=O)(=O)O)c1 (stereo not drawn) [Example 78, 3-[2,3-difluoro-5-(5-methyl-2-pyrimidin-2-yl-7,8-dihydro-5H-pyrido[4,3-d]pyrimidin-6-yl)phenoxy]propane-1-sulfonic acid]
IC50 [1]: 976 nM

COc1cc(C)nc(N2CCc3nc(-c4ncccn4)ncc3C2C)c1 (stereo not drawn) [Example 161, 6-(4-methoxy-6-methyl-2-pyridyl)-5-methyl-2-pyrimidin-2-yl-7,8-dihydro-5H-pyrido[4,3-d]pyrimidine]
IC50 [1]: 95 nM

CC1c2cnc(-c3ccccn3)nc2CCN1c1cc(F)c(F)c(OCCCN2CCOCC2)c1 (stereo not drawn) [Example 32, 4-[3-[2,3-difluoro-5-[5-methyl-2-(2-pyridyl)-7,8-dihydro-5H-pyrido[4,3-d]pyrimidin-6-yl]phenoxy]propyl]morpholine]
IC50 [1]: 74 nM

COc1cc(F)cc(N2CCc3nc(-c4ncccn4)ncc3C2C)c1 (stereo not drawn) [Example 72, 6-(3-fluoro-5-methoxy-phenyl)-5-methyl-2-pyrimidin-2-yl-7,8-dihydro-5H-pyrido[4,3-d]pyrimidine]
IC50 [2]: 22 nM

CC1c2cnc(-c3ncccn3)nc2CCN1c1cc(F)c(F)c(OCC(F)F)c1 (stereo not drawn) [Example 70, 6-[3-(2,2-difluoroethoxy)-4,5-difluoro-phenyl]-5-methyl-2-pyrimidin-2-yl-7,8-dihydro-5H-pyrido[4,3-d]pyrimidine]
IC50 [1]: 26 nM

CC1c2cnc(-c3ncccn3)nc2CCN1c1cc(F)c(F)c(OCCCC(=O)O)c1 (stereo not drawn) [Example 50, 4-[2,3-difluoro-5-(5-methyl-2-pyrimidin-2-yl-7,8-dihydro-5H-pyrido[4,3-d]pyrimidin-6-yl)phenoxy]butanoic acid]
IC50 [1]: 1130 nM

COc1cc(N2CCc3nc(-c4ncccn4)ncc3C2C)cc(F)c1C#N (stereo not drawn) [Example 22, 2-fluoro-6-methoxy-4-(5-methyl-2-pyrimidin-2-yl-7,8-dihydro-5H-pyrido[4,3-d]pyrimidin-6-yl)benzonitrile]
IC50 (Hepatitis B virus, HepG2.2.15, read-out: IC50 (HBsAg assay)): 27 nM

CC1c2cnc(-c3ncccn3)nc2CCN1c1cc(F)c(F)c(OCCCN2CCCC2=O)c1 (stereo not drawn) [Example 96, 1-[3-[2,3-difluoro-5-(5-methyl-2-pyrimidin-2-yl-7,8-dihydro-5H-pyrido[4,3-d]pyrimidin-6-yl)phenoxy]propyl]pyrrolidin-2-one]
IC50 [1]: 94 nM

CC1c2cnc(-c3ncccn3)nc2CCN1c1cc(F)c(F)c(OCCC2CNC2)c1 (stereo not drawn) [Example 116, 6-[3-[2-(azetidin-3-yl)ethoxy]-4,5-difluoro-phenyl]-5-methyl-2-pyrimidin-2-yl-7,8-dihydro-5H-pyrido[4,3-d]pyrimidine]
IC50 [1]: 902 nM

CC1c2cnc(-c3ncccn3)nc2CCN1c1cc(OCC2CSC2)cc(F)n1 (stereo not drawn) [Example 194, 6-[6-fluoro-4-(thietan-3-ylmethoxy)-2-pyridyl]-5-methyl-2-pyrimidin-2-yl-7,8-dihydro-5H-pyrido[4,3-d]pyrimidine]
IC50 [1]: 43 nM

CC1c2cnc(-c3ncccn3)nc2CCN1c1cc(N2CCCC2)cc(F)n1 (single isomer, unassigned; (+)) [Example 201, (+)-6-(6-fluoro-4-pyrrolidin-1-yl-2-pyridyl)-5-methyl-2-pyrimidin-2-yl-7,8-dihydro-5H-pyrido[4,3-d]pyrimidine]
IC50 [2]: 124 nM

CC1c2cnc(-c3ncccn3)nc2CCN1c1cc(OCC(N)=O)cc(F)n1 (stereo not drawn) [Example 174, 2-[[2-fluoro-6-(5-methyl-2-pyrimidin-2-yl-7,8-dihydro-5H-pyrido[4,3-d]pyrimidin-6-yl)-4-pyridyl]oxy]acetamide]
IC50 [1]: 660 nM
